Measured values published in BindingDB's records for doi:10.1016/j.bmcl.2006.04.076 (Merck Research Laboratories, 2006).

Biological target: Beta-secretase 1 (Homo sapiens, UniProt P56817)
Assay: In Vitro BACE1 Activity Assay
Settings: pH 4.5; 22 °C
Procedure: The assay was performed using a 96-well format on a HPLC equipped with four 96-well plate holders. Test compounds were preincubated with enzymes for 30 min, followed by the addition of substrate. The solution was then incubated for an additional 30 min at room temperature. After the reaction was terminated, the solution was filtered, and the filtrate was subjected to HPLC analysis. The substrate and product were monitored by fluorescence detection (340nm excitation, 440 nm emission).

Chain of Beta-secretase 1 (P56817 whole entry): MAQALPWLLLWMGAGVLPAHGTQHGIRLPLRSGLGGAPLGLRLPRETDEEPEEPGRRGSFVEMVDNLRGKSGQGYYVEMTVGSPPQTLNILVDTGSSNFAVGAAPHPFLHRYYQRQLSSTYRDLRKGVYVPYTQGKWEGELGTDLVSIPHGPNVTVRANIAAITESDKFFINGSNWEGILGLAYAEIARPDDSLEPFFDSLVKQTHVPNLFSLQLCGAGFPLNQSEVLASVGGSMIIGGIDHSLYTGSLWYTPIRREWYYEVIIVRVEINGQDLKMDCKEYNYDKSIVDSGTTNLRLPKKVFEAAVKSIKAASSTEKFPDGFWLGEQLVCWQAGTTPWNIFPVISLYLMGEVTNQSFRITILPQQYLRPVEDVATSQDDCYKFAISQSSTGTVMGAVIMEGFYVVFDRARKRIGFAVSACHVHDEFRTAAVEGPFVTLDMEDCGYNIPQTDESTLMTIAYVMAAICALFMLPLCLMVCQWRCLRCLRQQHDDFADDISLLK

| IC50 [µM] | SMILES |
| --- | --- |
| 17.2 | C[C@H](NC[C@H](Cc1ccccc1)NC(=O)c1cc(C(=O)N[C@H](C)c2ccc(F)cc2)cc(N(C)S(C)(=O)=O)c1)C(=O)N1CCCC1C(=O)O (stereo partly drawn) [1-[(2S)-2-{[(2S)-2-[(3-{[(1R)-1-(4-fluorophenyl)ethyl]carbamoyl}-5-(N-methylmethanesulfonamido)phenyl)formamido]-3-phenylpropyl]amino}propanoyl]pyrrolidine-2-carboxylic acid] |
| 0.02 | CC(C)CNC(=O)[C@H](C)NC[C@H](Cc1ccccc1)NC(=O)c1cc(/C=C\[C@H]2C[C@@H]2C)cc(N(C)S(C)(=O)=O)c1 [N-[(1S)-1-benzyl-2-({(1S)-1-methyl-2-[(2-methylpropyl)amino]-2-oxoethyl}amino)ethyl]-3-{(Z)-2-[(1S,2S)-2-methylcyclopropyl]ethenyl}-5-[methyl(methylsulfonyl)amino]benzamide] |
